Results: patent publication US8178506B2, “Oligomeric compounds and compositions for use in modulation of small non-coding RNAs” (Regulus Therapeutics Inc., priority 2003, dated 2012)
In the oligonucleotide strings, read from the 5' end, every base follows the letter of its sugar. An asterisk marks phosphorothioate; unmarked linkages are phosphodiester. Other units and linkages are bracketed, terminal groups are in braces. A string of capitals states the bases alone. e = 2'-O-(2-methoxyethyl) (MOE); [5mC] = 5-methylcytosine; d = 2'-deoxy (DNA)

Key:
IGFBP-1 = IGFBP-1 mRNA expression in HepG2 cells; type: cell-based, human; conditions: for IGFBP1 mRNA: four hours, UTC = 100; for IGFBP1 mRNA expression: Experiment 2, insulin treated: HepG2 cells transfected with oligomeric compound, 1 nM insulin for four hours, UTC + 1 nM insulin = 100
follistatin = assay: Follistatin mRNA expression in HepG2 cells; type: cell-based, human; conditions: for Follistatin mRNA: four hours, UTC = 100; for Follistatin mRNA expression: Experiment 2, insulin treated: HepG2 cells transfected with oligomeric compound, 1 nM insulin for four hours, UTC + 1 nM insulin = 100
IL-12 mRNA = IL-12 mRNA in LPS-activated primary murine macrophages; type: cell-based, mouse; conditions: normalized to LPS-treated cells without oligomeric compound
[1] = Experiment 1, basal (no insulin), HepG2, 100 nM oligomeric compound
[2] = Experiment 2, 1 nM insulin treated, HepG2, 100 nM oligomeric compound
[3] = HepG2 cells, Experiment 1, basal (no insulin)
[4] = Experiment 3, basal (no insulin), HepG2 cells, 48 hours post-transfection
[5] = Experiment 4, insulin-sensitization: HepG2 cells treated with 1 nM insulin for four hours, 48 h post-transfection, mRNA by real-time PCR

| Substance | IGFBP-1 (% UTC) (IGFBP-1; [1]) | IGFBP-1 (% UTC) (IGFBP-1; [2]) | Follistatin (% UTC) (follistatin; [1]) | Follistatin (% UTC) (follistatin; [2]) | IGFBP1 mRNA (IGFBP-1; [3]) | Follistatin mRNA (follistatin; [3]) | also measured |
| --- | --- | --- | --- | --- | --- | --- | --- |
| 327925 (antisense eT*eA*eG*e[5mC]*eT*eG*eG*eT*eT*eG*eA*eA*eG*eG*eG*eG*eA*e[5mC]*e[5mC]*eA*eA) [compound 327925] | 152 % UTC | 166 % UTC | 110 % UTC | 148 % UTC | – | – | IL-12 mRNA expression, −IFN % UTC (IL-12 mRNA; 300 nM oligomeric compound and LPS, no IFN-gamma pretreatment, single experiment): 302 % UTC; IL-12 mRNA expression, +IFN % UTC (IL-12 mRNA; 300 nM oligomeric compound, stimulation with IFN-gamma and LPS, average of 2 experiments): 60 % UTC |
| 327878 (antisense e[5mC]*eT*eA*eG*eT*eG*eG*eT*e[5mC]*e[5mC]*eT*eA*eA*eA*e[5mC]*eA*eT*eT*eT*e[5mC]*eA*e[5mC]) [compound 327878] | 162 % UTC | 185 % UTC | 124 % UTC | 150 % UTC | – | – | – |
| 341803 (antisense CCACACACTTCCTTACATTCCA; all 2'-MOE, all phosphorothioate, methylation of C not given here) [compound 341803] | – | – | – | – | 107 | 68 | – |
| 328691 (e[5mC]*e[5mC]*e[5mC]*e[5mC]*eA*dT*d[5mC]*dT*dT*dA*dG*d[5mC]*dA*dT*d[5mC]*eT*eA*eA*eG*eG) [compound 328691] | – | – | – | – | – | – | IGFBP-1 (% UTC) (IGFBP-1; [4]): 105 % UTC; IGFBP-1 (% UTC) (IGFBP-1; [5]): 101 % UTC; Follistatin (% UTC) (follistatin; [4]): 93 % UTC; Follistatin (% UTC) (follistatin; [5]): 104 % UTC |
| 328125 (antisense eT*eA*eT*eG*eA*eA*eA*eT*eG*e[5mC]*e[5mC]*eA*eG*eA*eG*e[5mC]*eT*eG*e[5mC]*e[5mC]*eA) [compound 328125] | – | – | – | – | – | – | IGFBP1 mRNA expression (IGFBP-1): 216; Follistatin mRNA expression (follistatin): 107 |
| 327922 (antisense eT*e[5mC]*eA*eG*eT*eT*eT*eT*eG*e[5mC]*eA*eT*eG*eG*eA*eT*eT*eT*eG*e[5mC]*eA*e[5mC]*eA) [compound 327922] | 109 % UTC | 104 % UTC | 57 % UTC | 61 % UTC | – | – | – |
| 328685 (e[5mC]*eG*eG*e[5mC]*e[5mC]*dG*dG*dA*dG*d[5mC]*d[5mC]*dA*dT*dA*dG*eA*e[5mC]*eT*e[5mC]*eG; antisense) [compound 328685] | – | – | – | – | – | – | IGFBP-1 (% UTC) (IGFBP-1; [4]): 157 % UTC; IGFBP-1 (% UTC) (IGFBP-1; [5]): 143 % UTC; Follistatin (% UTC) (follistatin; [4]): 100 % UTC; Follistatin (% UTC) (follistatin; [5]): 157 % UTC |
| 327880 (antisense eA*e[5mC]*eA*eA*eA*eT*eT*e[5mC]*eG*eG*eT*eT*e[5mC]*eT*eA*e[5mC]*eA*eG*eG*eG*eT*eA) [compound 327880] | 137 % UTC | 136 % UTC | 107 % UTC | 149 % UTC | – | – | – |
| 327918 (antisense e[5mC]*eT*eA*eG*eT*eA*e[5mC]*eA*eT*e[5mC]*eA*eT*e[5mC]*eT*eA*eT*eA*e[5mC]*eT*eG*eT*eA) [compound 327918] | – | – | – | – | 95 | 75 | IGFBP1 mRNA expression (IGFBP-1): 81; Follistatin mRNA expression (follistatin): 76 |
| 328114 (antisense eA*eA*eT*e[5mC]*eT*e[5mC]*eA*eT*eT*eT*eT*e[5mC]*eA*eT*eA*e[5mC]*eT*eT*eG*e[5mC]*eA) [compound 328114] | – | – | – | – | – | – | IGFBP1 mRNA expression (IGFBP-1): 177; Follistatin mRNA expression (follistatin): 81 |
| 327905 (antisense e[5mC]*eA*eG*eA*e[5mC]*eT*e[5mC]*e[5mC]*eG*eG*eT*eG*eG*eA*eA*eT*eG*eA*eA*eG*eG*eA) [compound 327905] | 107 % UTC | 115 % UTC | 104 % UTC | 148 % UTC | – | – | – |
| 327897 (antisense eA*e[5mC]*eA*eG*eG*e[5mC]*e[5mC]*eG*eG*eG*eA*e[5mC]*eA*eA*eG*eT*eG*e[5mC]*eA*eA*eT*eA) [compound 327897] | – | – | – | – | 163 | 129 | IGFBP1 mRNA expression (IGFBP-1): 243; Follistatin mRNA expression (follistatin): 123 |
| 327886 (antisense e[5mC]*eG*e[5mC]*eG*eT*eA*e[5mC]*e[5mC]*eA*eA*eA*eA*eG*eT*eA*eA*eT*eA*eA*eT*eG) [compound 327886] | – | – | – | – | 176 | 82 | – |
| 327916 (antisense eT*eG*eG*e[5mC]*eA*eT*eT*e[5mC]*eA*e[5mC]*e[5mC]*eG*e[5mC]*eG*eT*eG*e[5mC]*e[5mC]*eT*eT*eA*eA) [compound 327916] | – | – | – | – | 102 | 108 | IGFBP1 mRNA expression (IGFBP-1): 128; Follistatin mRNA expression (follistatin): 98 |
| 327885 (antisense eA*e[5mC]*eT*eA*e[5mC]*e[5mC]*eT*eG*e[5mC]*eA*e[5mC]*eT*eG*eT*eA*eA*eG*e[5mC]*eA*e[5mC]*eT*eT*eT*eG) [compound 327885] | – | – | – | – | 161 | 74 | – |
| 327895 (antisense eA*e[5mC]*eA*eA*eA*e[5mC]*eA*e[5mC]*e[5mC]*eA*eT*eT*eG*eT*e[5mC]*eA*e[5mC]*eA*e[5mC]*eT*e[5mC]*e[5mC]*eA) [compound 327895] | – | – | – | – | 108 | 83 | – |
| 327892 (antisense eA*e[5mC]*eT*eT*eT*e[5mC]*eG*eG*eT*eT*eA*eT*e[5mC]*eT*eA*eG*e[5mC]*eT*eT*eT*eA) [compound 327892] | 108 % UTC | 139 % UTC | 91 % UTC | 96 % UTC | – | – | – |
| 327900 (antisense e[5mC]*eT*eG*e[5mC]*e[5mC]*eT*eG*eT*e[5mC]*eT*eG*eT*eG*e[5mC]*e[5mC]*eT*eG*e[5mC]*eT*eG*eT) [compound 327900] | – | – | – | – | 102 | 111 | – |
| 340927 (antisense eT*eG*eA*eG*e[5mC]*dT*dA*d[5mC]*dA*dG*dT*dG*d[5mC]*dT*dT*e[5mC]*eA*eT*e[5mC]*eT*e[5mC]*eA) [compound 340927] | 201 % UTC | 285 % UTC | 111 % UTC | 128 % UTC | – | – | – |
| 327954 (antisense eA*e[5mC]*eA*eA*eA*eG*eT*eT*e[5mC]*eT*eG*eT*eG*eA*eT*eG*e[5mC]*eA*e[5mC]*eT*eG*eA) [compound 327954] | 118 % UTC | 120 % UTC | 100 % UTC | 105 % UTC | – | – | – |
| 341804 (antisense ATCTGCACTGTCAGCACTTT; all 2'-MOE, all phosphorothioate, methylation of C not given here) [compound 341804] | – | – | – | – | 162 | 63 | – |
| 341807 (antisense CTGGGACTTTGTAGGCCAGTT; all 2'-MOE, all phosphorothioate, methylation of C not given here) [compound 341807] | – | – | – | – | 129 | 102 | – |
| 328759 (antisense eG*eA*eG*eG*eG*dA*dT*dT*dG*dT*dA*dT*dG*dA*dA*e[5mC]*eA*eT*e[5mC]*eT) [compound 328759] | – | – | – | – | – | – | IGFBP-1 (% UTC) (IGFBP-1; [4]): 356 % UTC; IGFBP-1 (% UTC) (IGFBP-1; [5]): 212 % UTC; Follistatin (% UTC) (follistatin; [4]): 266 % UTC; Follistatin (% UTC) (follistatin; [5]): 224 % UTC |
| 341806 (antisense GCCAATATTTCTGTGCTGCTA; all 2'-MOE, all phosphorothioate, methylation of C not given here) [compound 341806] | – | – | – | – | 128 | 75 | – |
| 328677 (eT*e[5mC]*e[5mC]*eT*eG*dG*dA*dT*dG*dA*dT*dA*dT*d[5mC]*dT*eA*e[5mC]*e[5mC]*eT*e[5mC]; antisense) [compound 328677] | – | – | – | – | – | – | IGFBP-1 (% UTC) (IGFBP-1; [4]): 208 % UTC; IGFBP-1 (% UTC) (IGFBP-1; [5]): 159 % UTC; Follistatin (% UTC) (follistatin; [4]): 130 % UTC; Follistatin (% UTC) (follistatin; [5]): 118 % UTC |
| 328115 (antisense eA*eG*eA*eA*eG*eG*eT*eG*eG*eG*eG*eA*eG*e[5mC]*eA*eG*e[5mC]*eG*eT*e[5mC]*eA) [compound 328115] | – | – | – | – | – | – | IGFBP1 mRNA expression (IGFBP-1): 120; Follistatin mRNA expression (follistatin): 91 |
